Test results published in article PMC12101465, “Synthesis and anti-mycobacterial activity of novel medium-chain β-lactone derivatives: a multi-target strategy to combat Mycobacterium abscessus” (RSC Medicinal Chemistry, 2025).
In brackets after ≈: the same amount, converted by molar mass.

Assay: in vitro
Design: resazurin reduction viability assay, fluorescence, cytotoxicity on murine macrophages
Settings: mouse, raw macrophages; read-out: CC50 (µg/mL) Raw264.7
Procedure: The cytotoxicity of the new synthesized β-lactone analogs against eukaryotic cells was measured based on the reduction of resazurin as a value of cellular viability by metabolic activity, as previously described.[45,54,55] Murine (Raw264.7) macrophages (American Type Culture Collection TIB-71) were incubated with two-fold dilution of each compound for 24 h at 37 °C and 5% CO2. Then, 20 μL of a 0.025% (w/v) resazurin solution was added to each well, and fluorescence was measured following a 4 h incubation as described above. The compound concentration leading to 50% macrophage cell death was defined as the CC50.[28,29,56] All experiments were performed as three independent biological replicates. See ESI ^† for detailed protocol. 3.5. Cell toxicity of beta-lactone derivatives

`CCCCCCCCC1(F)C(=O)OC1CCC` (mixture of isomers) [VM043, 3-Fluoro-3-octyl-4-propyloxetan-2-one] and `CCCCCCCCCCCCC1(F)C(=O)OC1CCC` (stereo not shown) [VM044, 3-Dodecyl-3-fluoro-4-propyloxetan-2-one] cannot be ordered by CC50 at 24 h: > 125 µg/mL for the first, > 125 µg/mL for the second.

`CCCCCCCC/C=C\CCCCCC[C@@H]1C(=O)O[C@H]1CC` (racemic) [VM017, (±)-trans (Z)-4-Ethyl-3-(hexadec-7-en-1-yl)oxetan-2-one] and `CCCCCCCC/C=C\CCCCCC[C@@H]1C(=O)O[C@@H]1CC` (racemic) [VM018, (±)-cis (Z)-4-Ethyl-3-(hexadec-7-en-1-yl)oxetan-2-one] cannot be ordered by CC50 at 24 h: > 125 µg/mL for the first, > 125 µg/mL for the second.

`CCCCCC[C@@H]1C(=O)O[C@H]1CCC` (racemic) [VM019, (±)-trans 3-Hexyl-4-propyloxetan-2-one] and `CCCCCCCC[C@@H]1C(=O)O[C@H]1CCC` (racemic) [VM038, (±)-trans 3-Octyl-4-propyloxetan-2-one] cannot be ordered by CC50 at 24 h: > 125 µg/mL for the first, > 125 µg/mL for the second.

`CCCCCCCC/C=C\CCCCCC[C@@H]1C(=O)O[C@H]1CCCCCCCCC` (racemic) [VM021, (±)-trans (Z)-3-(Hexadec-7-en-1-yl)-4-nonyloxetan-2-one] and `CCCCCCCC/C=C\CCCCCC[C@@H]1C(=O)O[C@@H]1CCCCCCCCC` (racemic) [VM023, (±)-cis (Z)-3-(Hexadec-7-en-1-yl)-4-nonyloxetan-2-one] cannot be ordered by CC50 at 24 h: > 125 µg/mL for the first, > 125 µg/mL for the second.

`CCCCCCCC/C=C\CCCCCC[C@@H]1C(=O)O[C@H]1CCCCCC` (racemic) [VM022, (±)-trans (Z)-3-(Hexadec-7-en-1-yl)-4-hexyloxetan-2-one] and `CCCCCCCC/C=C\CCCCCC[C@@H]1C(=O)O[C@@H]1CCCCCC` (racemic) [VM024, (±)-cis (Z)-3-(Hexadec-7-en-1-yl)-4-hexyloxetan-2-one] cannot be ordered by CC50 at 24 h: > 125 µg/mL for the first, > 125 µg/mL for the second.

`CCCCCCCCCC[C@@H]1C(=O)O[C@H]1CCC` (racemic) [VM026, (±)-trans 3-Decyl-4-propyloxetan-2-one] and `CCCCCCCCCC[C@@H]1C(=O)O[C@@H]1CCC` (racemic) [VM027, (±)-cis 3-Decyl-4-propyloxetan-2-one] cannot be ordered by CC50 at 24 h: > 125 µg/mL for the first, > 125 µg/mL for the second.

`CCCCCCCC/C=C\CCCCCCCC[C@@H]1C(=O)O[C@H]1CCC` (racemic) [VM029, (±)-trans (Z)-3-(Octadec-9-en-1-yl)-4-propyloxetan-2-one] and `CCCCCCCC/C=C\CCCCCCCC[C@@H]1C(=O)O[C@@H]1CCC` (racemic) [VM030, (±)-cis (Z)-3-(Octadec-9-en-1-yl)-4-propyloxetan-2-one] cannot be ordered by CC50 at 24 h: > 125 µg/mL for the first, > 125 µg/mL for the second.

`CCCCCCCC/C=C\CCCCCCC[C@@H]1OC(=O)[C@H]1CCC` (racemic) [VM036, (±)-trans 4-((Z)-Heptadec-8-en-1-yl)-3-propyloxetan-2-one] and `CCCCCCCC/C=C\CCCCCCC[C@H]1OC(=O)[C@H]1CCC` (racemic) [VM037, (±)-cis 4-((Z)-Heptadec-8-en-1-yl)-3-propyloxetan-2-one] cannot be ordered by CC50 at 24 h: > 125 µg/mL for the first, > 125 µg/mL for the second.

Going from `CCCCCCCC[C@@H]1C(=O)O[C@@H]1CCC` (racemic) [VM039, (±)-cis 3-Octyl-4-propyloxetan-2-one] to `CCCCCCCCCCC1C(=O)OC1CCC` (stereo not shown) [VM025, 3-Decyl-4-propyloxetan-2-one], the CC50 at 24 h rises from 119 ± 4 µg/mL (≈ 526 µM) to > 125 µg/mL.

`CCCCCCCCCCCC[C@@H]1C(=O)O[C@H]1CCC` (racemic) [VM040, (±)-trans 3-Dodecyl-4-propyloxetan-2-one] and `CCCCCCCCCCCC[C@@H]1C(=O)O[C@@H]1CCC` (racemic) [VM041, (±)-cis 3-Dodecyl-4-propyloxetan-2-one] cannot be ordered by CC50 at 24 h: > 125 µg/mL for the first, > 125 µg/mL for the second.

Going from `C#CCCC[C@@H]1C(=O)O[C@H]1CCC` (racemic) [VM050p, (±)-trans 3-(Pent-4-yn-1-yl)-4-propyloxetan-2-one] to `C#CCCCC1C(=O)OC1CCC` (stereo not shown) [VM049p, 3-(Pent-4-yn-1-yl)-4-propyloxetan-2-one], the CC50 at 24 h rises from 44.1 ± 2.4 µg/mL (≈ 245 µM) to 68.1 ± 3.1 µg/mL (≈ 378 µM) (1.5-fold).

`C#CCCCCCCC[C@@H]1C(=O)O[C@H]1CCC` (racemic) [VM052p, (±)-trans 3-(Non-8-yn-1-yl)-4-propyloxetan-2-one] and `C#CCCCCCC[C@@H]1C(=O)O[C@H]1CCC` (racemic) [VM053p, (±)-trans 3-(Oct-7-yn-1-yl)-4-propyloxetan-2-one] cannot be ordered by CC50 at 24 h: > 125 µg/mL for the first, > 125 µg/mL for the second.

`CCC[C@@H]1OC(=O)[C@H]1CCCCCCCCN=[N+]=[N-]` (racemic) [VM055p, (±)-trans 3-(8-Azidooctyl)-4-propyloxetan-2-one] and `C#CCCCCCCCCCC1C(=O)OC1CCC` (stereo not shown) [VM051p, 4-Propyl-3-(undec-10-yn-1-yl)oxetan-2-one] cannot be ordered by CC50 at 24 h: > 125 µg/mL for the first, > 125 µg/mL for the second.

`CCCCCCCC[C@@H]1C(=O)N[C@H]1CCC` (racemic) [VM057, (±)-trans 3-Octyl-4-propylazetidin-2-one] and `CCCCCCCCC1C(=O)NC1CCC` (stereo not shown) [VM058, 3-Octyl-4-propylazetidin-2-one] are within 1.5-fold of each other in CC50 at 24 h: 52.7 ± 1.1 µg/mL (≈ 234 µM) for the first, 40.1 ± 0.6 µg/mL (≈ 178 µM) for the second.

`CCCCCCCC/C=C\CCCCCCCCC1C(=O)OC1CCC` (stereo not shown) [VM028, (Z)-3-(Octadec-9-en-1-yl)-4-propyloxetan-2-one] and `C#CCCC1OC(=O)C1CCCCCCCC/C=C\CCCCCCCC` (stereo not shown) [VM035p, (Z)-4-(But-3-yn-1-yl)-3-(octadec-9-en-1-yl)oxetan-2-one] cannot be ordered by CC50 at 24 h: > 125 µg/mL for the first, > 125 µg/mL for the second.

`CCCCCCCC/C=C\CCCCCCC1(F)C(=O)OC1CCC` (stereo not shown) [VM042, (Z)-3-Fluoro-3-(hexadec-7-en-1-yl)-4-propyloxetan-2-one] and `CCCCCCCCOCCCCCCCCC1(F)C(=O)OC1CCC` (stereo not shown) [VM046, 3-Fluoro-3-(8-(octyloxy)octyl)-4-propyloxetan-2-one] cannot be ordered by CC50 at 24 h: > 125 µg/mL for the first, > 125 µg/mL for the second.

`CCCCCCCCOCCCCCCCCC1C(=O)OC1CCC` (stereo not shown) [VM045, 3-(8-(Octyloxy)octyl)-4-propyloxetan-2-one] and `C#CCCC1OC(=O)C1CCCCCCCCCCCC` (stereo not shown) [VM054p, 4-(But-3-yn-1-yl)-3-dodecyloxetan-2-one] cannot be ordered by CC50 at 24 h: > 125 µg/mL for the first, > 125 µg/mL for the second.

`CCCCCCNC(=O)CCCCCCCC1C(=O)OC1CCC` (stereo not shown) [VM047, N-Hexyl-8-(2-oxo-4-propyloxetan-3-yl)octanamide] and `CCCCCCCC(=O)NCCCCCCC1C(=O)OC1CCC` (stereo not shown) [VM048, N-(6-(2-Oxo-4-propyloxetan-3-yl)hexyl)octanamide] cannot be ordered by CC50 at 24 h: > 125 µg/mL for the first, > 125 µg/mL for the second.

With `CCCCCCCCCCCCC1C(=O)NC1CCC` (stereo not shown) [VM056, 3-Dodecyl-4-propylazetidin-2-one] the CC50 at 24 h was 30.6 ± 1.1 µg/mL (≈ 109 µM).
